Consider eleven molecules from patent publication US20070280938A1, “Peptides Derived from Natural Cytotoxicity Receptors and Methods of Use Thereof” (YISSUM RESEARCH AND DEVELOPMENT COMPANY OF THE HEBREW …, priority 2003, published 2007).

“Also recorded” adds a separate entry of the source.

Experiment [1] concerns the target T1, NKp46D2-Ig (Homo sapiens, UniProt O76036).
T1 construct: residues 101-235 (D2) of the mature NKp46 protein were PCR amplified; CD5 leader peptide (with added Met start codon) (N); made in house
The experiment is described as follows: Inhibition of NKp46D2-Ig binding to tumor cells by premixed saccharides (flow cytometry). As to conditions: for Inhibition of binding of NKp46D2-Ig: HeLa and PC-3, FIGS. 2B, 2C; for Inhibition of binding of NKp46D2-Ig to tumor cells: cell line not specified. The procedure:
(§1) Cells were incubated with the various fusion-Igs for 2 h at 4° C., washed and stained with FITC-conjugated-F(ab′)2-Goat-anti-human-IgG-Fcy (109-096-098, Jackson ImmunoResearch, West Grove, Pa.). Staining and washing buffer consisted of 0.5% (w/v) BSA and 0.05% sodium azide in PBS. Staining of CHO and mutant CHO cells was carried out with 2% FCS instead of bovine serum albumin (BSA) in the different buffers. Propidium iodide (PI) was added prior to reading for exclusion of dead cells. Flow cytometry was performed using a FACSCalibur flow cytometer (Becton Dickinson, Mountain View, Calif.). Data files were acquired and analyzed using BD CELLQuest™ 3.3 software.
(§2) For most binding inhibition experiments, 20 μg of fusion-Ig were premixed with the GAG and added to cells for staining as above. In all experiments, each sample was stained twice in different wells. When results are presented as MFI (median fluorescence intensity), average MFI∓SD of the duplicate staining is shown to reveal consistency of staining procedure. Human IgG1 (hIgG1 kappa, PHP010) was purchased from Serotec, Oxford, UK. Staining with the anti-heparin/heparan sulfate antibody HS4E4 was previously described (35).
On the technique in general: In flow cytometry, cells or beads pass a laser one at a time.

The target of experiment [2] is T2, NKp30-Ig (Homo sapiens, UniProt O14931).
T2 construct: made in house
T2 sequence (O14931 with tags, fused parts or gaps P25L): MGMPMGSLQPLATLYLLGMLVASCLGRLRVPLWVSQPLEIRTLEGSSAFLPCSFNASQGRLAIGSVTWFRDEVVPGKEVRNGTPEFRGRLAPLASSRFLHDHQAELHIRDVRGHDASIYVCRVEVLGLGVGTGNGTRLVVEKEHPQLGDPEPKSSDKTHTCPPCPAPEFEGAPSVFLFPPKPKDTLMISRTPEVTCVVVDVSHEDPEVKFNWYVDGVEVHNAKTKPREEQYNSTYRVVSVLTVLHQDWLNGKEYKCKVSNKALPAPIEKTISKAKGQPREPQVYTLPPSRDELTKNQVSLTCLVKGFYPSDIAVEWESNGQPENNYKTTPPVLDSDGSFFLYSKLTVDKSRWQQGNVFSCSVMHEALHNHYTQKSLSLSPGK
The experiment is described as follows: Inhibition of NKp30-Ig binding to tumor cells by premixed saccharides (flow cytometry). The following applies: cell line not specified. The procedure:
as §1, §2

Experiment [3] addresses T3, NKp30-Ig (Homo sapiens, UniProt O14931, P25L).
T3 construct: made in house
Described as above. The procedure:
as §1, §2

Experiment [4] has as its system NKp30-Ig. Briefly: Treatment of tumor cells (GAG-degrading enzymes, glycosylation or GPI-anchor blockers) then staining with NKp30-Ig. The class given is cell-based, human. The procedure:
as §1
(§3) Tumor cells (10^6) were washed twice in PBS, resuspended in 1ml reaction buffer alone (mock) or reaction buffer containing one of the following GAG-degrading enzymes (Sigma): keratanase (0.94 u/ml, K-2876), heparin lyase I (1.56 u/ml, H-2519) and heparin lyase III (1.25 u/ml, H-8891). Reaction buffer consisted of 1% (w/v) BSA, 1 μg/ml leupeptin and 10 u/ml aprotinin in PBS. Cells were incubated with enzyme for 60 min at 37° C., washed two times with PBS and stained with fusion-Igs as above.
(§4) The involvement of cell membrane-associated GAGs in the binding of NKp46D2-Ig and NKp30-Ig to their cellular ligands was examined. […]

For experiment [5], the system named is NKp46D2-Ig. Briefly: Treatment of tumor cells (GAG-degrading enzymes, glycosylation or GPI-anchor blockers) then staining with NKp46D2-Ig. The class given is cell-based, human. The procedure: as §1, §3, §4
The test system of experiment [6] is HeLa cells. Briefly: Lysis of HeLa cells by primary NK lines (cytotoxicity assay). The class given is cell-based, human. The following applies: FIG. 6A. The protocol: The cytotoxic activity of NK lines against the various targets was assessed in 5-hr 35S-release assays and in 4-hr Eu release time-resolved fluorescence assays, as previously described (20). In experiments where carbohydrates were included, NK cells were first mixed with the carbohydrates and then added to target cells. […] Each point represents the average of duplicate/triplicate values.
To test the role of NKp46 and NKp30 recognition of carbohydrates in NK lysis, the lysis of HeLa cells by NKs in the presence of Glyc-PAA was studied.

The target of experiment [7] is T4, LIR1-Ig (Homo sapiens, UniProt Q8NHL6).
T4 construct: made in house
T4 sequence (Q8NHL6 with tags, fused parts or gaps limits assumed): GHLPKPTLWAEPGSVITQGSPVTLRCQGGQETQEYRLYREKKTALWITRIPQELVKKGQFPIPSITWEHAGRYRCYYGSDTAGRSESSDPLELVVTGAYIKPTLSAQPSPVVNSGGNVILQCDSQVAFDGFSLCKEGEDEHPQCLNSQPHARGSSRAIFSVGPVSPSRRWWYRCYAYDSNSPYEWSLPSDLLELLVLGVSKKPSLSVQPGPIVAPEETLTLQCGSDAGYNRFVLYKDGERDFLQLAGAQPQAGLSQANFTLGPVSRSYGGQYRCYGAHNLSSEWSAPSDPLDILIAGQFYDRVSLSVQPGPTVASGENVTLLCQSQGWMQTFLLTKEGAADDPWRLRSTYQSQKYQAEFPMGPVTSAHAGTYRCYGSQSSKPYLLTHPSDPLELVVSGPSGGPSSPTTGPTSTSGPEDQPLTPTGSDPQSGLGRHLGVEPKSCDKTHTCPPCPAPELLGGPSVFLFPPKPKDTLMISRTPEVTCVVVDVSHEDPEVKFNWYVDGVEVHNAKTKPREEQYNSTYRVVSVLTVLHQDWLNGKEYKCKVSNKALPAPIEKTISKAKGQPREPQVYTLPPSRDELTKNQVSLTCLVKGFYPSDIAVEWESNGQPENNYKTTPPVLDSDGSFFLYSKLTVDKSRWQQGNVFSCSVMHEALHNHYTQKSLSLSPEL
The experiment is described as follows: Effect of premixed saccharides on LIR1-Ig binding to HeLa cells (flow cytometry). As to conditions: Glyc-PAA mixed with Ig-fusion protein, FIG. 1A. The procedure: as §1, §2

Experiment [8] deals with mutant CHO cells lacking HSPG. The experiment is described as follows: Binding to mutant CHO cells lacking HSPG. As to conditions: as compared to wt CHO cells; FIG. 7A. The procedure:
as §1
To further test the role of NKp46 and NKp30 recognition of carbohydrates in NK lysis, the lysis of CHO mutants lacking HSPG was examined. […] Thus, reduction in binding of NKp46-D2-Ig and NKp30-Ig to tumor cells lacking HSPG is correlated with reduced lysis of these cells by NK cells.

Experiment [9] relates to EB-SP. The experiment is described as follows: Staining of EB-SP cells expressing cell-surface heparanase with fusion-Igs. The experiment is classed as binding, murine. As to conditions: as compared to parental EB or EB-mock transfected. The procedure: as §1
The EB T lymphoma cell line and EB-SP cells that express a functional heparanase on the cell surface (16) were stained with NKp46D2-Ig. […] An alternative interpretation is that the binding is to a cell-surface molecule associated with heparan sulfate. […] Membrane-associated heparan sulfate proteoglycans (HSPGs) can be divided into two families: glypicans, which are attached to the plasma membrane via glycosylphosphatidylinositol (GPI) anchors, and syndecans, which are transmembrane proteins (23). The involvement of GPI-anchored proteins in the binding of NKp30-Ig and NKp46D2-Ig to tumor cells was examined. Treatment of cells with D-mannosamine (white bars) inhibits GPI-anchor formation.

Experiment [10] has as its system HeLa cells. The experiment is described as follows: Staining of HeLa cells with fusion-Igs (flow cytometry). The experiment is classed as binding, human. The procedure: as §1
Experiment [11] has as its system IV-infected cells. The experiment is described as follows: Binding of wild type and mutated NKp46D2 fusion proteins to IV-infected cells. As to conditions: FIG. 10. The procedure:
as §1
Based on the observations described above, certain site-directed mutations were made in NKp46D2 (Lys 157, Arg 160, His 163 and Arg 166; 4 point mutations) or (Lys 157, Arg 160, His 163, Arg 166, and Lys 170; 5 point mutations) into hydrophilic, neutral, amino acids with residues of similar size and to compare the ability of the mutant and the wild type receptors to bind heparin/heparan sulfate. Two constructs were prepared: Q4 (K157Q, R160Q, H163Q, and R166Q) and Q4T1 (K157Q, R160Q, H163Q, R166Q, and K170T). The mutated referred to herein as SEQ ID NO:29 SEQ ID NO:30.. Corresponding fusion proteins were prepared (NKp46D2-Q4-Ig and NKp46D2-Q4T1-Ig) and compared to NKp46D2-Ig.

Where [12] appears, read: Glyc-PAA premix, inconsistent inhibition phenotype.
The mark [13] stands for this setting: tumor cells treated before staining.
Where [14] appears, read: Glyc-PAA mixed with Ig-fusion protein, HeLa cells, FIG. 1A.
[15] abbreviates: HeLa cells pretreated with 40mM D-mannosamine overnight, FIG. 4D.

T1 sequence (O76036 with tags, fused parts or gaps isoform O76036-6): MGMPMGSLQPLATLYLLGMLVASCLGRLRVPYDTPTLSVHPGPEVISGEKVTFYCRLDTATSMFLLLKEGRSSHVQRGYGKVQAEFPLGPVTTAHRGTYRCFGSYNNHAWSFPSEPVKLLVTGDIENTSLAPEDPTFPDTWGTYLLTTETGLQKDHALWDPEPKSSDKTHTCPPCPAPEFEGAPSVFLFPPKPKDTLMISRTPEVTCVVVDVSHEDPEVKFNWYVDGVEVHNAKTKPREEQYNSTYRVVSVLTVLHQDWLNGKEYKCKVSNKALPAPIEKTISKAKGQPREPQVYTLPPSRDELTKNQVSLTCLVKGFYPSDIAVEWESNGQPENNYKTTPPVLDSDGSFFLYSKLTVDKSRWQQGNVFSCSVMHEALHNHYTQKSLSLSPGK
T3 sequence (O14931 with tags, fused parts or gaps P25L): as the sequence (O14931 with tags, fused parts or gaps P25L) above

As for hyaluronic acid, in [1] (incremental concentrations up to 10 μg/ml), the “Inhibition of binding of NKp46D2-Ig” value was “did not inhibit binding”.
For heparan sulfate, the “Inhibition of binding of NKp46D2-Ig” value in [1] (0.1 μg/ml) was “inhibit binding”. Further, in [1], the “Inhibition of binding of NKp46D2-Ig to tumor cells” value is reported as “directly inhibits the binding; also recorded: potent inhibitors”. Moreover, the “Inhibition of binding of NKp30-Ig to tumor cells” value in experiment [2] is on record as “directly inhibits the binding; also recorded: potent inhibitors”.
As to 3′-O-sulfo-LacNAc, the “Inhibition of binding of NKp46D2-Ig to tumor cells” value in experiment [1] is given as “did not inhibit binding”. Moreover, the “Inhibition of binding of NKp30-Ig to tumor cells” value in experiment [2] was “did not inhibit binding”.
Turning to 6′-O-sulfo-LacNAc, in experiment [1] (setting [12]), the “reduction in binding of NKp46D2-Ig” value is recorded as “up to 25%”. Further, the “reduction in binding of NKp30-Ig” value in [3] (setting [12]) is recorded as “up to 25%”.
With `CC(=O)N[C@H]1[C@@H](OCc2ccccc2)O[C@H](CO)[C@H](O)[C@@H]1O` [abenzyl-GalNAc], the “Effect of cell treatment on binding of NKp30-Ig” value in [4] (setting [13]) is reported as “significantly reduced the binding”. Also, the “Effect of cell treatment on binding of NKp46D2-Ig” value in experiment [5] (setting [13]) is given as “significantly reduced the binding”.
For N-desulfated heparin, in experiment [1] (heparins modified in sulfation or acetylation, HeLa cells, FIG. 2D), the “Inhibition of NKp46D2-Ig binding by modified heparins” value was “potent inhibitor”.
4 ′, 6′-di-O-sulfo-LacNAc: the “Inhibition of binding of NKp46D2-Ig to tumor cells” value in experiment [1] was “did not inhibit binding”. The “Inhibition of binding of NKp30-Ig to tumor cells” value in [2] is recorded as “did not inhibit binding”.
In the case of 6-O-sulfo-LacNAc-PAA, the “Inhibition of binding of NKp46D2-Ig to HeLa cells” value in experiment [1] (setting [14]) was “inhibited binding”. Moreover, the “Effect on binding of the fusion proteins after pre-incubation of the cells” value in experiment [1] (cells pre-incubated with the saccharide, followed by wash and application of the fusion proteins) is on record as “did not affect the binding”. Further, the “Reduction of lysis of HeLa cells by NK” value is recorded as “significant reduction of lysis” in [6] (0.9 mM) and “two fold” in experiment [6] (agent present during lysis assay, Glyc-PAA 0.225 to 0.9 mM, E:T 50:1, 4 h). In addition, the “Inhibition of binding of NKp30-Ig to HeLa cells” value in experiment [3] (setting [14]) is on record as “inhibited”. In addition, in [7], the “Inhibition of binding of LIR1-Ig to HeLa cells” value is listed as “not the positive binding of LIR1-Ig”.
Regarding `N[C@@H]1C(O)O[C@H](CO)[C@@H](O)[C@@H]1O` (stereo partly drawn) [D-mannosamine], the “Reduction of binding of NKp30-Ig” value in experiment [4] (setting [15]) is on record as 2 fold. Also, in experiment [5] (setting [15]), the “Reduction of binding of NKp46D2-Ig” value worked out at 4 fold.

B1: NKp30-Ig: protein conjugate comprising CD5 leader sequence and NKp30 D domain fused to Fc domain (protein)
chain: MAWRALHPLLLLLLLFPGSQAQSKAQVLQSVAGQTLTVRCQYPPTGSLYEKKGWCKEASALVCIRLVTSSKPRTMAWTSRFTIWDDPDAGFFTVTMTDLREEDSGHYWCRIYRPSDNSVSKSVRFYLVVSPASASTQTPWTPRDLVSSQTQTQSCVPPTAGARQAPESPSTIPVPSQPQNSTLRPGPAAPIALVPVFCGLLVAKSLVLSALLVWWGDIWWKTVMELRSLDTQKATCHLQQVTDLPWTSVSSPVEREILYHTVARTKISDDDDEHTL
modifications: homo sapiens
Turning to B1, the “Binding to mutant CHO cells lacking HSPG” value in [8] is given as “significantly reduced”. The “Staining of EB-SP compared with EB” value in [9] is “same phenotype”. The “Binding to HeLa cells” value in [10] is “bound well”.

B2: NKp46D2-Ig: truncated fusion protein: D2 of NKp46 with CD5 leader fused to Fc portion of human IgG1 (protein)
chain: MAWMLLLILIMVHPGSCALWVSQPPEIRTLEGSSAFLPCSFNASQGRLAIGSVTWFRDEVVPGKEVRNGTPEFRGRLAPLASSRFLHDHQAELHIRDVRGHDASIYVCRVEVLGLGVGTGNGTRLVVEKEHPQLGAGTVLLLRAGFYAVSFLSVAVGSTVYYQGKCLTWKGPRRQLPAVVPAPLPPPCGSSAHLLPPVPGG
modifications: homo sapiens
As for B2, the “Binding to mutant CHO cells lacking HSPG” value in [8] was “significantly reduced”. Besides, in experiment [9] (FIG. 4C), the “Reduction of staining of EB-SP” value was determined as 50%. Further, the “Binding to HeLa cells” value in experiment [10] was “bound well”. Moreover, the “Binding to IV-infected cells” value in experiment [11] is “bind similarly”.
